In US20240165173A1, “METHOD OF REDUCING URIC ACID BY USING LACTOBACILLUS PARACASEI LT12” (priority 2022, published 2024):
Where “and” joins values, the source holds several entries; their conditions need not be identical. Equal entries are not always repeated.

Key:
[1] = test system: high uric acid mice model (potassium oxonate and hypoxanthine)
Description: (§1) Tested animals are 5-week old male ICR mice purchased from Shanghai JSJ Laboratory Animal Co., Ltd., SPF grade. All mice were grown under the conditions of a temperature of 24±2° C., alternating 12 h light and 12 h dark, and free feeding and drinking for adaptation. After 1 week of adaptation, mice were randomly grouped into […], 7 mice in one group. The groups are normal control group, model group, positive control group, low dose Lactobacillus paracasei LT12 group, and high dose Lactobacillus paracasei LT12 group (see Table 3). Modeling period is two weeks and interfering period is four weeks. During modeling, except for the normal control group, the other groups were subjected to gavage with 300 mg/kg potassium oxonate and hypoxanthine (formulated into a suspension using 0.5% CMC-Na solution) every day for high uric acid modeling. During interference, except for the normal control group, the other groups were subjected to gavage with 300 mg/kg potassium oxonate and hypoxanthine every day for continued modeling. 2 h after modeling, each group of mice were administered at the dose according to FIG. 2. The drug samples for each group were dissolved in saline. The same amount of saline was administered to normal groups and model group.
(§2) During modeling, blood was collected through cutting the tail to detect changes in serum uric acid every week. At the last two days of the experiment, fresh feces of mice of each group were collected and kept in −20° C. refrigerator. Before sacrifice, mice were fasted for 12 h. The last modeling was conducted. Blood was collected 1 h after modeling followed by sacrifice and dissection. Mice whole blood is placed at 4° C. for 2 h followed by centrifugation at 3000 rpm for 10 min. The serum was aliquoted and stored in −80° C. refrigerator. Mice liver, kidneys, and colon were collected. One of the kidneys was preserved in 4% […] for pathological analysis. Other tissue samples were immediately freezed in liquid nitrogen and stored at −80 ° C. for preservation.
(§3) The levels of uric acid, creatinine, blood urea nitrogen, lactate dehydrogenase, xanthine oxidase (XOD), oxidative stress levels (glutathione (GSH), superoxide dismutase (SOD), glutathione peroxidase (GSH-Px), malondialdehyde (MDA), inflammatory factors (TNF-alpha, IL-1β, and IL-6)) were detected according to the detection method described in the specification in the kits. Pathological analysis on renal tissue were completed in corporation with Wuhan Servicebio Technology Co., Ltd., China. Immunoblotting analysis on renal uric acid transporter proteins were conducted according to internal methods in labs.

[2] = test system: high uric acid mice model (potassium oxonate and hypoxanthine); format: in vivo, ICR mice; parameters: inflammatory cell infiltration (pathological score) / renal tubules hydropic degeneration (pathological score) / renal tubules atrophy (pathological score) / renal tubules dilation (pathological score) / connective tissue proliferation (pathological score) / Protein cast (pathological score): scale not given here
Description: as §1, §2, §3

xanthine oxidase (XOD) = format: in vivo, ICR mice; conditions: mice of the high uric acid model, after interference
Description: Tested animals are 5-week old male ICR mice purchased from Shanghai JSJ Laboratory Animal Co., Ltd., SPF grade. All mice were grown under the conditions of a temperature of 24±2° C., alternating 12 h light and 12 h dark, and free feeding and drinking for adaptation. After 1 week of adaptation, mice were randomly grouped into 10 groups, 7 mice in one group. […] Modeling period is two weeks and interfering period is four weeks. During modeling, except for the normal control group, the other groups were subjected to gavage with 300 mg/kg potassium oxonate and hypoxanthine (formulated into a suspension using 0.5% CMC-Na solution) every day for high uric acid modeling. During interference, except for the normal control group, the other groups were subjected to gavage with 300 mg/kg potassium oxonate and hypoxanthine every day for continued modeling. 2 h after modeling, each group of mice were administered at the dose according to FIG. 2. The drug samples for each group were dissolved in saline. […]
The levels of uric acid, creatinine, blood urea nitrogen, lactate dehydrogenase, xanthine oxidase (XOD), oxidative stress levels (glutathione (GSH), superoxide dismutase (SOD), glutathione peroxidase (GSH-Px), malondialdehyde (MDA), inflammatory factors (TNF-alpha, IL-1β, and IL-6)) were detected according to the detection method described in the specification in the kits. […]

[3] = after interference for four weeks, gavage, compared with model and normal group
[4] = Positive group, score per mouse 3-1 to 3-7

Oc1ncnc2[nH]ncc12 [allopurinol]
blood urea nitrogen levels [1, 3]: increased
serum creatinine levels [1, 3]: increased
serum uric acid levels [1, 3]: reduced to the levels of the normal group
renal toxicity ([1]; mouse, in vivo): strong renal toxicity was generated
Protein cast (pathological score) [2, 4]: 1 and 0 (6×)
connective tissue proliferation (pathological score) [2, 4]: 0 (5×) and 1 (2×)
inflammatory cell infiltration (pathological score) [2, 4]: 0 (2×) and 1 (5×)
renal tubules atrophy (pathological score) [2, 4]: 0 (5×) and 1 (2×)
renal tubules dilation (pathological score) [2, 4]: 0 (3×) and 1 (4×)
renal tubules hydropic degeneration (pathological score) [2, 4]: 1 (4×) and 0 and 2 (2×)
Total score (pathological scores of mice kidneys) ([2]; Positive group, sum over 7 mice): 22
damages in renal tissues ([2]; pathological analysis, high uric acid mice): severe renal damages were caused
activities of xanthine oxidase in serum and liver (xanthine oxidase (XOD)): the lowest
